Source: paper PMC8570541, “Real-time observation of tetrapyrrole binding to an engineered bacterial phytochrome” (Communications Chemistry, 2021)

Assays:
miRFP670 = molecular target: T1, miRFP670 (Rhodopseudomonas palustris, UniProt A0A161I5N6, D200T/I252C, form not given); assay: time-resolved absorption and stimulated Raman spectroscopy, SDS-PAGE; format: binding; conditions: covalent; Cys253 GAF thioether, then a second thioether to Cys20 PAS; pH 8.0, 20 mM Tris-HCl, 150 mM NaCl, DTT
T1 construct: engineered monomeric PAS-GAF fragment derived from RpBphP1; Cys20 (PAS) and Cys253 (GAF); about 35 kDa; N-terminal polyhistidine tag; apoprotein expressed in E. coli LMG194 without heme oxygenase
T1 sequence (A0A161I5N6 1-314 D200T/I252C limits assumed): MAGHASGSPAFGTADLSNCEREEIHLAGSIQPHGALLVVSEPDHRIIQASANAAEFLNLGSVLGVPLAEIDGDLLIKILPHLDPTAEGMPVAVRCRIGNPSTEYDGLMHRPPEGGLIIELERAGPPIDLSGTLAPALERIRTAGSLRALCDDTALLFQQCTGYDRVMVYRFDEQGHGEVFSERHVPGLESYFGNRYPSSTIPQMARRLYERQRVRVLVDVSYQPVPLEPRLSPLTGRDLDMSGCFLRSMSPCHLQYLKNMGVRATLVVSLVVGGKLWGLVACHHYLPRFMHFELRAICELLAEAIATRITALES

miRFP709 = molecular target: T2, miRFP709 (Rhodopseudomonas palustris, UniProt A0A161I5N6); assay: time-resolved absorption and stimulated Raman spectroscopy; format: binding; conditions: covalent; thioether to Cys in PAS; pH 8.0, 20 mM Tris-HCl, 150 mM NaCl, DTT
T2 construct: engineered monomeric PAS-GAF fragment derived from RpBphP1; Cys in PAS only, none in GAF; about 35 kDa; N-terminal polyhistidine tag; apoprotein expressed in E. coli LMG194 without heme oxygenase
T2 sequence (A0A161I5N6 1-314 limits assumed): as the sequence (A0A161I5N6 1-314 D200T/I252C limits assumed) above, with T200D, C252I counted along it
Excerpt: time-resolved absorption and stimulated Raman spectroscopy on miRFP709 | We assign the 18-min reaction to the covalent bond formation to Cys in the PAS

Q: How did the “time constant of C-S bond formation (Cys in GAF)” value (miRFP670) turn out when C=CC1=C(C)C(=Cc2[nH]c(C=C3N=C(C=C4NC(=O)C(C)=C4C=C)C(C)=C3CCC(=O)O)c(CCC(=O)O)c2C)NC1=O [biliverdin] was run?
A: 4.3 min

Q: What about the “time constant of C-S bond formation (Cys in PAS)” value (miRFP709) of the same compound?
A: 18 min
